Target: T1, CGRP receptor (SK-N-MC cell membranes) (Homo sapiens, UniProt O60894+Q16602)
T1 construct: endogenous in cells; host or cells: SK-N-MC cells (membrane homogenate)
Assay: CGRP Binding Assay ([125I]-CGRP radioligand binding, SK-N-MC homogenate)
Details: displacement of [125I]-CGRP, SK-N-MC homogenate; read-out: CGRP binding IC50
Experimental: Tissue Culture. SK-N-MC cells were grown at 37° C. in 5% CO2 as a monolayer in medium consisting of MEM with Earle's salts and L-glutamine (Gibco) supplemented with 10% fetal bovine serum (Gibco).
Cell Pellets. […] The cells were transferred from plates to polypropylene tubes (16×100 mm) and homogenized using a polytron. Homogenates were centrifuged at 32,000×g for 30 min. The pellets were resuspended in cold hypotonic lysis buffer with 0.1% mammalian protease inhibitor cocktail (Sigma) and assayed for protein concentration. The SK-N-MC homogenate was then aliquoted and stored at −80° C. until needed.
Radioligand Binding Assay. The compounds of invention were solubilized and carried through serial dilutions using 100% DMSO. Aliquots from the compound serial dilutions were further diluted 25 fold into assay buffer (50 mM Tris-Cl pH 7.5, 5 mM MgCl2, 0.005% Triton X-100) and transferred (volume 50 μl) into 96 well assay plates. […] SK-N-MC pellets were thawed, diluted in assay buffer with fresh 0.1% mammalian protease inhibitor cocktail (Sigma), and homogenized again. SK-N-MC homogenate (5 μg/well) was added in a volume of 100 μl. The assay plates were then incubated at room temperature for 2 h. Assays were stopped by addition of excess cold wash buffer (20 mM Tris-Cl pH 7.5, 0.1% BSA) immediately followed by filtration over glass fiber filters (Whatman GF/B) previously soaked in 0.5% PEI. Non-specific binding was defined with 1 μM beta-CGRP. Protein bound radioactivity was determined using a gamma or scintillation counter.

T1 sequence (Q16602 23-461): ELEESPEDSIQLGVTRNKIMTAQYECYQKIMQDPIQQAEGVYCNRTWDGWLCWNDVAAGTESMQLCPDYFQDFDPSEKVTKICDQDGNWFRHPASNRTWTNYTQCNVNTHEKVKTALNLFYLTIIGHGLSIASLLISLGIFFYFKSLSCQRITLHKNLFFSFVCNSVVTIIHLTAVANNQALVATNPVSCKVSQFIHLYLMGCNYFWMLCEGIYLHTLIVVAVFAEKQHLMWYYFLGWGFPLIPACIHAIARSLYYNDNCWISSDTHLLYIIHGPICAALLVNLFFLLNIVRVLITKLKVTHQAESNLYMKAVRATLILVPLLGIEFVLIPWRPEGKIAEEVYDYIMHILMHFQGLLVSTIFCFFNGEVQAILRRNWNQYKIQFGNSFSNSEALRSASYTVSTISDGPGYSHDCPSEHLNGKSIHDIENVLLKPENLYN
T1 sequence (O60894 27-148): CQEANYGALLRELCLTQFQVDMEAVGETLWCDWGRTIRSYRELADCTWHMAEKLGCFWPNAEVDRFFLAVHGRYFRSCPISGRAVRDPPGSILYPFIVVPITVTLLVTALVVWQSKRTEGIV

SMILES	IC50
Cc1cc(C)c(NC(=O)N[C@@H](CC(=O)N2CCC(N3Cc4ccccc4NC3=O)CC2)C(=O)N2CCC(N3CCCCC3)CC2)cc1C [Example 139]	100 to 1000 nM
O=C(NC(CN1CCC(O)CC1)C(=O)N1CCC(N2CCCCC2)CC1)N1CCC(N2Cc3ccccc3NC2=O)CC1 (racemic) [Example 53, (±)-4-(2-Oxo-1,4-dihydro-2H-quinazolin-3-yl)-piperidine-1-carboxylic acid[2-[1,4′]bipiperidinyl-1′-yl-1-(4-hydroxy-piperidin-1-ylmethyl)-2-oxo-ethyl]-amide]	> 1000 nM
O=C1Cc2cc(C[C@@H](NC(=O)N3CCC(N4Cc5ccccc5NC4=O)CC3)C(=O)N3CCC(N4CCCCC4)CC3)ccc2N1 [Example 50, (R)-4-(2-Oxo-1,4-dihydro-2H-quinazolin-3-yl)-piperidine-1-carboxylic acid[2-[1,4′]bipiperidinyl-1′-yl-2-oxo-1-(2-oxo-2,3-dihydro-1H-indol-5-ylmethyl)-ethyl]-amide]	< 10 nM
O=C(C[C@H](NCc1c[nH]cn1)C(=O)N1CCC(N2CCCCC2)CC1)N1CCC(N2Cc3ccccc3NC2=O)CC1 [Example 98, (L)-1-[1,4′]Bipiperidinyl-1′-yl-2-[(1H-imidazol-4-ylmethyl)-amino]-4-[4-(2-oxo-1,4-dihydro-2H-quinazolin-3-yl)-piperidin-1-yl]-butane-1,4-dione]	> 1000 nM
CC(=O)c1cccc(NC(=O)N[C@@H](CC(=O)N2CCC(N3Cc4ccccc4NC3=O)CC2)C(=O)N2CCC(N3CCCCC3)CC2)c1 [Example 147]	100 to 1000 nM
O=C(NCc1ccccc1)N[C@@H](CC(=O)N1CCC(N2Cc3ccccc3NC2=O)CC1)C(=O)N1CCC(N2CCCCC2)CC1 [Example 145]	100 to 1000 nM
O=C(Cc1cccs1)N[C@@H](CC(=O)N1CCC(N2Cc3ccccc3NC2=O)CC1)C(=O)N1CCC(N2CCCCC2)CC1 [Example 117]	100 to 1000 nM
O=C(N[C@@H](CC(=O)N1CCC(N2Cc3ccccc3NC2=O)CC1)C(=O)N1CCC(N2CCCCC2)CC1)c1cccc(OC(F)(F)F)c1 [Example 121]	100 to 1000 nM
O=C(N[C@@H](CC(=O)N1CCC(N2Cc3ccccc3NC2=O)CC1)C(=O)N1CCC(N2CCCCC2)CC1)Oc1ccccc1 [Example 130]	100 to 1000 nM
O=C(Nc1ccccc1)N[C@@H](CC(=O)N1CCC(N2Cc3ccccc3NC2=O)CC1)C(=O)N1CCC(N2CCCCC2)CC1 [Example 143]	100 to 1000 nM
Cc1cc(CC(NC(=O)N2CCC(N3Cc4ccccc4NC3=O)CC2)C(=O)OC2CCC(c3ccccc3)CC2)cc2cn[nH]c12 (centres unmarked) [Example 41d, 3-(7-Methyl-1H-indazol-5-yl)-2-{[4-(2-oxo-1,4-dihydro-2H-quinazolin-3-yl)-piperidine-1-carbonyl]-amino}-propionic acid 4-phenyl-cyclohexyl ester]	10 to 100 nM
COc1ccccc1NC(=O)N[C@@H](CC(=O)N1CCC(N2Cc3ccccc3NC2=O)CC1)C(=O)N1CCC(N2CCCCC2)CC1 [Example 149]	10 to 100 nM
Cc1cc(CC(NC(=O)N2CCC3(CC2)OC(=O)Nc2ccccc23)C(=O)NCc2ccncc2)cc2cn[nH]c12 (racemic) [Example 30, (±)-1′,2′-Dihydro-2′-oxospiro-[4H-3′,1-benzoxazine-4,4′-piperidine-1-carboxylic acid {2-(7-methyl-1H-indazol-5-yl)-1-[(pyridin-4-ylmethyl)-carbamoyl]-ethyl}-amide]	10 to 100 nM
O=C(NC(Cn1ccc(OCc2ccccc2)cc1=O)C(=O)N1CCC(N2CCCCC2)CC1)N1CCC(N2Cc3ccccc3NC2=O)CC1 (racemic) [Example 51, (±)-4-(2-Oxo-1,4-dihydro-2H-quinazolin-3-yl)-piperidine-1-carboxylic acid[1-(4-benzyloxy-2-oxo-2H pyridin-1-ylmethyl)-2-[1,4′]bipiperidinyl-1′-yl-2-oxo-ethyl]-amide]	> 1000 nM
COc1ccc(OC(=O)N[C@@H](CC(=O)N2CCC(N3Cc4ccccc4NC3=O)CC2)C(=O)N2CCC(N3CCCCC3)CC2)cc1 [Example 134]	100 to 1000 nM
O=C(N[C@@H](CC(=O)N1CCC(N2Cc3ccccc3NC2=O)CC1)C(=O)N1CCC(N2CCCCC2)CC1)c1ccc(Cl)c(Cl)c1 [Example 111]	100 to 1000 nM
O=C(NC(Cc1ccc2[nH]ncc2c1)C(=O)N1CCN(Cc2ccco2)CC1)N1CCC(N2Cc3ccccc3NC2=O)CC1 (centres unmarked) [Example 40e]	> 1000 nM
CN(C)/C=C/CN1CCN(C(=O)C(Cc2ccc3[nH]ncc3c2)NC(=O)N2CCC(N3Cc4ccccc4NC3=O)CC2)CC1 (centres unmarked) [Example 40h]	> 1000 nM
O=C(N[C@@H](CC(=O)N1CCC(N2Cc3ccccc3NC2=O)CC1)C(=O)N1CCC(N2CCCCC2)CC1)N[C@@H]1C[C@H]1c1ccccc1 [Example 154]	100 to 1000 nM
O=C(Nc1ccc(Oc2ccccc2)cc1)N[C@@H](CC(=O)N1CCC(N2Cc3ccccc3NC2=O)CC1)C(=O)N1CCC(N2CCCCC2)CC1 [Example 146]	10 to 100 nM

More lines, now with the values ahead:

IC50	SMILES
100 to 1000 nM	Cc1ccc(F)cc1NC(=O)N[C@@H](CC(=O)N1CCC(N2Cc3ccccc3NC2=O)CC1)C(=O)N1CCC(N2CCCCC2)CC1 [Example 195]
10 to 100 nM	O=C(Nc1ccccc1OC(F)(F)F)N[C@@H](CC(=O)N1CCC(N2Cc3ccccc3NC2=O)CC1)C(=O)N1CCC(N2CCCCC2)CC1 [Example 200]
100 to 1000 nM	O=C(Nc1c(F)cccc1F)N[C@@H](CC(=O)N1CCC(N2Cc3ccccc3NC2=O)CC1)C(=O)N1CCC(N2CCCCC2)CC1 [Example 163]
100 to 1000 nM	Cc1ccc(NC(=O)N[C@@H](CC(=O)N2CCC(N3Cc4ccccc4NC3=O)CC2)C(=O)N2CCC(N3CCCCC3)CC2)c(C)c1 [Example 185]
100 to 1000 nM	CCOc1ccccc1NC(=O)N[C@@H](CC(=O)N1CCC(N2Cc3ccccc3NC2=O)CC1)C(=O)N1CCC(N2CCCCC2)CC1 [Example 175]
100 to 1000 nM	O=C(Nc1ccc(F)cc1)N[C@@H](CC(=O)N1CCC(N2Cc3ccccc3NC2=O)CC1)C(=O)N1CCC(N2CCCCC2)CC1 [Example 180]
100 to 1000 nM	O=C(Nc1cc(C(F)(F)F)ccc1Cl)N[C@@H](CC(=O)N1CCC(N2Cc3ccccc3NC2=O)CC1)C(=O)N1CCC(N2CCCCC2)CC1 [Example 167]
100 to 1000 nM	Cc1cc(Br)ccc1NC(=O)N[C@@H](CC(=O)N1CCC(N2Cc3ccccc3NC2=O)CC1)C(=O)N1CCC(N2CCCCC2)CC1 [Example 194]
100 to 1000 nM	O=C(Nc1ccc(C(F)(F)F)cc1)N[C@@H](CC(=O)N1CCC(N2Cc3ccccc3NC2=O)CC1)C(=O)N1CCC(N2CCCCC2)CC1 [Example 160]
10 to 100 nM	O=C(Nc1cccc(F)c1)N[C@@H](CC(=O)N1CCC(N2Cc3ccccc3NC2=O)CC1)C(=O)N1CCC(N2CCCCC2)CC1 [Example 177]
100 to 1000 nM	COc1cc(NC(=O)N[C@@H](CC(=O)N2CCC(N3Cc4ccccc4NC3=O)CC2)C(=O)N2CCC(N3CCCCC3)CC2)cc(OC)c1 [Example 165]
100 to 1000 nM	CCc1ccc(NC(=O)N[C@@H](CC(=O)N2CCC(N3Cc4ccccc4NC3=O)CC2)C(=O)N2CCC(N3CCCCC3)CC2)cc1 [Example 190]
10 to 100 nM	COC(=O)c1cccc(NC(=O)N[C@@H](CC(=O)N2CCC(N3Cc4ccccc4NC3=O)CC2)C(=O)N2CCC(N3CCCCC3)CC2)c1 [Example 196]
100 to 1000 nM	C[C@@H](NC(=O)N[C@@H](CC(=O)N1CCC(N2Cc3ccccc3NC2=O)CC1)C(=O)N1CCC(N2CCCCC2)CC1)c1ccccc1 [Example 198]
10 to 100 nM	O=C(Nc1ccc(Cl)cc1Cl)N[C@@H](CC(=O)N1CCC(N2Cc3ccccc3NC2=O)CC1)C(=O)N1CCC(N2CCCCC2)CC1 [Example 161]

— patent US7842808B2, “Anti-migraine spirocycles” (Bristol-Myers Squibb Company, priority 2002, dated 2010)
